Test results reported in US10058550B2, “Methods of treating heart failure” (priority 2015, dated 2018).

Target: human APJ receptor (Homo sapiens (Human), UniProt P35414)
Test: biochemical
Assay type: biochemical
Conditions: read-out: Activity hAPJ SPA EC50 IP
Method in brief: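 Membranes from CHO cells stably expressing cloned human APJ were incubated with WGA SPA beads in 20 mM HEPES pH 7.5, 5 mM MgCl2, 0.1% BSA, 200 mM NaCl and 3 μM GDP. Reaction started with 0.2 nM [35S]GTPγS ± ligands, 90 min at RT. EC50 obtained by non-linear regression as mean of independent experiments.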

Chain of human APJ receptor (P35414 whole entry): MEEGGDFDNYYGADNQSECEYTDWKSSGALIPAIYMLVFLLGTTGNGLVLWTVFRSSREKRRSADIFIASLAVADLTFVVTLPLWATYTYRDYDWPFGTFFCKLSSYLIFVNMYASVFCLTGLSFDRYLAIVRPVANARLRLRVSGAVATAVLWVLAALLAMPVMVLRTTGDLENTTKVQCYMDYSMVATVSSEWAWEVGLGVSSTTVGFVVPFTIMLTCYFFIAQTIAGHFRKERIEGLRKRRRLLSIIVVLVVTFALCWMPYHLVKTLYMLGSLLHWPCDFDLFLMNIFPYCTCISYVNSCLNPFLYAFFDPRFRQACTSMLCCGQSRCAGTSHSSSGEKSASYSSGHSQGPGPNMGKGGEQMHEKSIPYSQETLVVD

SMILES | EC50 [nM]
COc1cccc(-c2nnc(NS(=O)(=O)CCc3ncc(F)cn3)n2-c2c(OC)cccc2OC)n1 [Example 676.0, N-(4-(2,6-dimethoxyphenyl)-5-(6-methoxy-2-pyridinyl)-4H-1,2,4-triazol-3-yl)-2-(5-fluoro-2-pyrimidinyl)ethanesulfonamide 2,2,2-trifluoroacetate] | 6
COc1ncnc(OC)c1-n1c(NS(=O)(=O)[C@@H]2C[C@H](OC)CN(c3ncc(F)cn3)C2)nnc1-c1cccnc1 (stereo in doubt) [Example 814.0, (3R,5S)-N-(4-(4,6-dimethoxy-5-pyrimidinyl)-5-(3-pyridinyl)-4H-1,2,4-triazol-3-yl)-1-(5-fluoro-2-pyrimidinyl)-5-methoxy-3-piperidinesulfonamide, (3R,5S)-N-(4-(4,6-dimethoxy-5-pyrimidinyl)-5-(3-pyridinyl)-4H-1,2,4-triazol-3-yl)-1-(5-fluoro-2-pyrimidinyl)-5-methoxy-3-piperidinesulfonamide] | 560
COc1ccccc1-n1c(NS(=O)(=O)[C@@H](C)[C@H](C)c2ncc(C)cn2)nnc1-c1cncc(C)c1 (atropisomer, axis not shown) [Example 797.0, (2S,3R, P)-N-(4-(2-methoxyphenyl)-5-(5-methyl-3-pyridinyl)-4H-1,2,4-triazol-3-yl)-3-(5-methyl-2-pyrimidinyl)-2-butanesulfonamide and (2S,3R, M)-N-(4-(2-methoxyphenyl)-5-(5-methyl-3-pyridinyl)-4H-1,2,4-triazol-3-yl)-3-(5-methyl-2-pyrimidinyl)-2-butanesulfonamide] | 2.4
CCO[C@@H](c1cnc(C)cn1)[C@@H](C)S(=O)(=O)Nc1nnc(-c2cncc(C)c2)n1-c1c(OC)cccc1OC (single isomer, unassigned) [Example 566.0, (1S,2R)—N-(4-(2,6-dimethoxyphenyl)-5-(5-methyl-3-pyridinyl)-4H-1,2,4-triazol-3-yl)-1-ethoxy-1-(5-methyl-2-pyrazinyl)-2-propanesulfonamide or (1R,2S)—N-(4-(2,6-dimethoxyphenyl)-5-(5-methyl-3-pyridinyl)-4H-1,2,4-triazol-3-yl)-1-ethoxy-1-(5-methyl-2-pyrazinyl)-2-propanesulfonamide] | 62
COc1cccc(-c2nnc(NS(=O)(=O)[C@@H](C)[C@H](OC)c3ncc(C)cn3)n2-c2c(O)ncnc2OC)n1 (single isomer, unassigned) [Example 739.0, (1R,2S,M)-N-(4-(4-hydroxy-6-methoxypyrimidin-5-yl)-5-(6-methoxypyridin-2-yl)-4H-1,2,4-triazol-3-yl)-1-methoxy-1-(5-methylpyrimidin-2-yl)propane-2-sulfonamide or (1R,2S,P)-N-(4-(4-hydroxy-6-methoxypyrimidin-5-yl)-5-(6-methoxypyridin-2-yl)-4H-1,2,4-triazol-3-yl)-1-methoxy-1-(5-methylpyrimidin-2-yl)propane-2-sulfonamide] | 1.5
COc1cccc(OC)c1-n1c(NS(=O)(=O)[C@@H](C)[C@H](O)c2nc(C)c(C)s2)nnc1-c1cncc(C)c1 (single isomer, unassigned) [Example 292.0] | 0.9
COc1cccc(OC)c1-n1c(NS(=O)(=O)[C@@H](C)[C@@H](OC(C)C)c2ncc(C)cn2)nnc1-c1ccccn1 [Example 778.0, (1S,2S)-N-(4-(2,6-dimethoxyphenyl)-5-(2-pyridinyl)-4H-1,2,4-triazol-3-yl)-1-(1-methylethoxy)-1-(5-methyl-2-pyrimidinyl)-2-propanesulfonamide] | 0.77
CCS(=O)(=O)Nc1nnc(-c2cccc(C)n2)n1-c1c(OC)cccc1OC [Example 30.0, N-(4-(2,6-dimethoxyphenyl)-5-(6-methylpyridin-2-yl)-4H-1,2,4-triazol-3-yl)ethanesulfonamide] | 830
COc1cccc(-c2nnc(NS(=O)(=O)/C(C)=C(\C)c3ncc(F)cn3)n2-c2c(OC)cccc2OC)n1 [Example 505.0, (2E)-N-(4-(2,6-dimethoxyphenyl)-5-(6-methoxy-2-pyridinyl)-4H-1,2,4-triazol-3-yl)-3-(5-fluoro-2-pyrimidinyl)-2-butene-2-sulfonamide] | 1.9
